Results reported in ChEMBL document CHEMBL4261501, “Design, synthesis and biological evaluation of imidazopyridine-propenone conjugates as potent tubulin inhibitors” (Medchemcomm, 2017).

Experiments:
A549 = assay: cells; conditions: Homo sapiens, A549, 48 h
Description: Cytotoxicity against human A549 cells after 48 hrs by MTT assay

HeLa = assay: cells; conditions: Homo sapiens, 48 h
Description: Cytotoxicity against human HeLa cells after 48 hrs by MTT assay

MCF7 = assay: cells; conditions: Homo sapiens, MCF7, 48 h
Description: Cytotoxicity against human MCF7 cells after 48 hrs by MTT assay

DU-145 = assay: Cytotoxicity against human DU145 cells after 48 hrs by MTT assay; assay type: functional, cell-based; conditions: DU-145, 48 h

| SMILES | IC50 (A549) | IC50 (HeLa) | IC50 (MCF7) | IC50 (DU-145) |
| --- | --- | --- | --- | --- |
| O=C(/C=C\Nc1cnc2ccccc2c1)c1c(-c2ccccc2)nc2ccccn12 | 1.75 µM | 3.08 µM | 5.17 µM | 2.44 µM |
| COc1ccc(N/C=C\C(=O)c2c(-c3ccc(Cl)cc3)nc3ccccn23)cc1 | 6.46 µM | 11.8 µM | 16.3 µM | 10.8 µM |
| COc1ccc(-c2nc3ccccn3c2C(=O)/C=C\Nc2ccc3[nH]ccc3c2)cc1 | 11 µM | 13.6 µM | 18.9 µM | 11.3 µM |
| COc1ccc(-c2nc3ccccn3c2C(=O)/C=C\Nc2ccc3cc[nH]c3c2)cc1 | 8.8 µM | 15.3 µM | 19.4 µM | 10.7 µM |
| COc1ccc(-c2nc3ccccn3c2C(=O)/C=C\Nc2ccc(F)cc2)cc1 | 3.25 µM | 11 µM | 13 µM | 6.13 µM |
| O=C(/C=C\Nc1ccc2cc[nH]c2c1)c1c(-c2ccc(Cl)cc2)nc2ccccn12 | 2.29 µM | 10.9 µM | 9.6 µM | 2.63 µM |
| O=C(/C=C\Nc1ccc2[nH]ccc2c1)c1c(-c2ccc(Cl)cc2)nc2ccccn12 | 1.01 µM | 3.24 µM | 7.12 µM | 1.29 µM |
| COc1cc(N/C=C\C(=O)c2c(-c3ccc(Cl)cc3)nc3ccccn23)cc(OC)c1 | 9.9 µM | 14.6 µM | 13.6 µM | 12 µM |

The remaining molecules from weak to strong by IC50 (A549), led by results:

| IC50 (A549) | IC50 (HeLa) | IC50 (MCF7) | SMILES | IC50 (DU-145) |
| --- | --- | --- | --- | --- |
| 4.47 µM | 4.57 µM | 14.9 µM | COc1ccc(-c2nc3ccccn3c2C(=O)/C=C\Nc2cc(OC)cc(OC)c2)cc1 | 6.26 µM |
| 1.21 µM | 4.85 µM | 11.6 µM | COc1ccc(-c2nc3ccccn3c2C(=O)/C=C\Nc2ccc3ncccc3c2)cc1 | 4.72 µM |
| 1.14 µM | 3.02 µM | 3.39 µM | COc1cc(N/C=C\C(=O)c2c(-c3ccc(Cl)cc3)nc3ccccn23)cc(OC)c1OC | 3.25 µM |
